Test results as given in PubChem BioAssay (NCI).
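Five compound concentrations were applied to cells in 96-well plates for 48 hours; endpoints were derived by simple linear interpolation of the resulting dose-response curve. TGI: total growth inhibition.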

How the values were obtained:
Test in all cases: inhibition of tumour cell growth, NCI panel, 48 h
A498 renal = tested on: A498 renal
BT-549 breast = tested on: BT-549 breast
CCRF-CEM leukemia = tested on: CCRF-CEM leukemia
DU-145 prostate = tested on: DU-145 prostate
LOX IMVI melanoma = tested on: LOX IMVI melanoma
NCI-H226 lung = tested on: NCI-H226 lung
PC-3 prostate = tested on: PC-3 prostate
RPMI-8226 leukemia = tested on: RPMI-8226 leukemia
RXF 393 renal = tested on: RXF 393 renal
UACC-257 melanoma = tested on: UACC-257 melanoma

Work on `CCOC(=O)c1cc(C2(O)CCN(CC(C)CC)C2=O)c(-c2cc(C)no2)[nH]1` (stereo not given) yielded a TGI (A498 renal) of over 100 µM, a TGI (BT-549 breast) of over 100 µM and a TGI (CCRF-CEM leukemia) of over 100 µM. For the same compound, the TGI (DU-145 prostate) was over 100 µM, the TGI (LOX IMVI melanoma) was over 100 µM and the TGI (NCI-H226 lung) was over 100 µM. It also gave a TGI (PC-3 prostate) of over 100 µM, a TGI (RPMI-8226 leukemia) of over 100 µM and a TGI (RXF 393 renal) of over 100 µM. For the same compound, the TGI (UACC-257 melanoma) was over 100 µM.
With `Cc1ccc(-c2c3c(n(C4OC(CO)C(O)C(O)C4O)c(=S)c2C#N)CC(C)(C)CC3=O)cc1` (stereo not given) the TGI (A498 renal) was over 100 µM, the TGI (BT-549 breast) was over 100 µM and the TGI (CCRF-CEM leukemia) was over 100 µM. It also gave a TGI (DU-145 prostate) of over 100 µM, a TGI (LOX IMVI melanoma) of over 100 µM and a TGI (NCI-H226 lung) of over 100 µM. For the same compound, the TGI (PC-3 prostate) was over 100 µM, the TGI (RPMI-8226 leukemia) was over 100 µM and the TGI (RXF 393 renal) was over 100 µM. The TGI (UACC-257 melanoma) was over 100 µM.
In the case of `CCOC(=O)c1ccc(C(=O)/C(C#N)=C2\CCCN2C)[nH]1`, the TGI (A498 renal) was over 100 µM, the TGI (BT-549 breast) was over 100 µM and the TGI (CCRF-CEM leukemia) was over 100 µM. The TGI (DU-145 prostate) was over 100 µM, the TGI (LOX IMVI melanoma) was over 100 µM and the TGI (NCI-H226 lung) was over 100 µM. For the same compound, the TGI (PC-3 prostate) was over 100 µM, the TGI (RPMI-8226 leukemia) was over 100 µM and the TGI (RXF 393 renal) was over 100 µM. For the same compound, the TGI (UACC-257 melanoma) was over 100 µM.
Compound `CC(NNC(=O)CC(=O)N(C(=O)c1ccccc1)c1ccc(Cl)cc1)c1cc2ccccc2oc1=O` (stereo not given) has a TGI (A498 renal) of over 10 µM, a TGI (BT-549 breast) of over 10 µM and a TGI (CCRF-CEM leukemia) of over 10 µM. It also gave a TGI (DU-145 prostate) of over 10 µM, a TGI (LOX IMVI melanoma) of over 10 µM and a TGI (NCI-H226 lung) of over 10 µM. The TGI (PC-3 prostate) was over 10 µM, the TGI (RPMI-8226 leukemia) was over 10 µM and the TGI (RXF 393 renal) was over 10 µM. For the same compound, the TGI (UACC-257 melanoma) was over 10 µM.
In the case of `CCCCCC(/C=C/C1CCC(=O)C1CC#C[Si](C)(C)C)OCc1ccccc1` (stereo not given), the TGI (A498 renal) was over 85.8 µM, the TGI (BT-549 breast) was 33.8 µM and the TGI (CCRF-CEM leukemia) was 17.2 µM. It also gave a TGI (DU-145 prostate) of over 87.5 µM, a TGI (LOX IMVI melanoma) of 35.8 µM and a TGI (NCI-H226 lung) of over 94.7 µM. It also gave a TGI (PC-3 prostate) of over 64.1 µM, a TGI (RPMI-8226 leukemia) of 44.3 µM and a TGI (RXF 393 renal) of 30.1 µM. It also gave a TGI (UACC-257 melanoma) of 39.6 µM.
`COC(=O)c1c(O)ccc2c1c1c(n2Cc2ccc(Cl)cc2Cl)C(=O)c2ccccc2C1` gave a TGI (A498 renal) of over 100 µM, a TGI (BT-549 breast) of over 100 µM and a TGI (CCRF-CEM leukemia) of 71.3 µM. It also gave a TGI (DU-145 prostate) of over 100 µM, a TGI (LOX IMVI melanoma) of 61.9 µM and a TGI (NCI-H226 lung) of 73.2 µM. It also gave a TGI (PC-3 prostate) of 73.3 µM, a TGI (RPMI-8226 leukemia) of 49 µM and a TGI (RXF 393 renal) of 78.8 µM. For the same compound, the TGI (UACC-257 melanoma) was over 100 µM.
With `CC(C)(C)NC(=O)N1N=C(c2ccccc2)C1c1ccccc1` (stereo not given) the TGI (A498 renal) was over 100 µM, the TGI (BT-549 breast) was over 100 µM and the TGI (CCRF-CEM leukemia) was over 100 µM. It also gave a TGI (DU-145 prostate) of over 100 µM, a TGI (LOX IMVI melanoma) of over 100 µM and a TGI (NCI-H226 lung) of over 100 µM. For the same compound, the TGI (PC-3 prostate) was 56.5 µM, the TGI (RPMI-8226 leukemia) was 46 µM and the TGI (RXF 393 renal) was 36.6 µM. It also gave a TGI (UACC-257 melanoma) of over 100 µM.
`CCO/C=N/NC(=O)CSc1nc2ccc(I)cc2c(=O)n1Cc1ccccc1` was tested, and the TGI (A498 renal) was over 100 µM, the TGI (BT-549 breast) was over 100 µM and the TGI (CCRF-CEM leukemia) was over 100 µM. It also gave a TGI (DU-145 prostate) of over 100 µM, a TGI (LOX IMVI melanoma) of over 100 µM and a TGI (NCI-H226 lung) of over 100 µM. For the same compound, the TGI (PC-3 prostate) was over 100 µM, the TGI (RPMI-8226 leukemia) was over 100 µM and the TGI (RXF 393 renal) was over 100 µM. The TGI (UACC-257 melanoma) was over 100 µM.
`O=[N+]([O-])c1ccc(S(=O)(=O)N=Ic2ccccc2)cc1` gave a TGI (A498 renal) of over 100 µM, a TGI (BT-549 breast) of over 100 µM and a TGI (CCRF-CEM leukemia) of over 100 µM. For the same compound, the TGI (DU-145 prostate) was over 100 µM, the TGI (LOX IMVI melanoma) was over 100 µM and the TGI (NCI-H226 lung) was over 100 µM. The TGI (PC-3 prostate) was over 100 µM, the TGI (RPMI-8226 leukemia) was over 100 µM and the TGI (RXF 393 renal) was over 100 µM. For the same compound, the TGI (UACC-257 melanoma) was over 100 µM.
`COc1cc(C2SCC(=O)N2c2ccc(Cl)c(Cl)c2)cc(OC)c1OC` (stereo not given) showed a TGI (A498 renal) of over 100 µM, a TGI (BT-549 breast) of 98 µM and a TGI (CCRF-CEM leukemia) of 51.3 µM. For the same compound, the TGI (DU-145 prostate) was over 100 µM, the TGI (LOX IMVI melanoma) was over 100 µM and the TGI (NCI-H226 lung) was over 79.4 µM. The TGI (PC-3 prostate) was over 100 µM, the TGI (RPMI-8226 leukemia) was over 78.6 µM and the TGI (RXF 393 renal) was 43.5 µM. It also gave a TGI (UACC-257 melanoma) of over 100 µM.
Compound `Cc1cn(CCCCCOC(=O)NC(CCCN=C(N)N)C(=O)O)c(=O)[nH]c1=O` (stereo not given) has a TGI (A498 renal) of 74.3 µM, a TGI (BT-549 breast) of over 100 µM and a TGI (CCRF-CEM leukemia) of over 100 µM. It also gave a TGI (DU-145 prostate) of over 100 µM, a TGI (LOX IMVI melanoma) of over 100 µM and a TGI (NCI-H226 lung) of over 100 µM. The TGI (PC-3 prostate) was over 100 µM, the TGI (RPMI-8226 leukemia) was 57 µM and the TGI (RXF 393 renal) was over 100 µM. For the same compound, the TGI (UACC-257 melanoma) was over 100 µM.
For `CC1(C)OC(=C(C#N)C#N)C(C#N)=C1/C=C/c1ccncc1`, the TGI (A498 renal) was 19.4 µM, the TGI (BT-549 breast) was 3.18 µM and the TGI (CCRF-CEM leukemia) was 2.4 µM. It also gave a TGI (DU-145 prostate) of 6.21 µM, a TGI (LOX IMVI melanoma) of 3.51 µM and a TGI (NCI-H226 lung) of 4.65 µM. It also gave a TGI (PC-3 prostate) of 4.62 µM, a TGI (RPMI-8226 leukemia) of 4.21 µM and a TGI (RXF 393 renal) of 5.07 µM. It also gave a TGI (UACC-257 melanoma) of 8.27 µM.
`CC(C)=C1C(=O)C[C@]2(C)C[C@H]3/C(=C(/C)CCC12)CC[C@@]3(C)O` (stereo not given in full) showed a TGI (A498 renal) of over 50 µM, a TGI (BT-549 breast) of over 50 µM and a TGI (CCRF-CEM leukemia) of over 50 µM. The TGI (DU-145 prostate) was over 50 µM, the TGI (LOX IMVI melanoma) was over 50 µM and the TGI (NCI-H226 lung) was over 50 µM. The TGI (PC-3 prostate) was over 50 µM, the TGI (RPMI-8226 leukemia) was over 50 µM and the TGI (RXF 393 renal) was over 50 µM. It also gave a TGI (UACC-257 melanoma) of over 50 µM.
